According to ChEMBL document CHEMBL4406824, “Phenolic N-monosubstituted carbamates: Antitubercular and toxicity evaluation of multi-targeting compounds” (Eur J Med Chem, 2019):
In brackets after ≈: the same amount, converted by molar mass.

How the values were obtained:
[1] = test system: Mycolicibacterium smegmatis; assay: Antimycobacterial activity against Mycobacterium smegmatis DSM 43465 after 120 hr by resazurin dye based microdilution method; format: functional; conditions: DSM 43465, 120 h
Mycolicibacterium aurum = assay: Antimycobacterial activity against Mycobacterium aurum DSM 43999 after 72 hr by resazurin dye based microdilution method; format: functional; conditions: DSM 43999, 72 h
HepG2 [2] = assay: Cytotoxicity against human HepG2 cells assessed as reduction in cell viability after overnight incubation by MTT assay; format: cell-based
Mycobacterium kansasii [3] = assay: Antimycobacterial activity against Mycobacterium kansasii 235/80 after 21 days; format: functional; conditions: 235/80, 504 h
Mycobacterium kansasii [4] = assay: Antimycobacterial activity against Mycobacterium kansasii 6509/96 after 14 days; format: functional; conditions: 6509/96, 336 h
Mycobacterium avium [5] = assay: Antimycobacterial activity against Mycobacterium avium 330/88 after 14 days; format: functional; conditions: 330/88, 336 h
[6] = test system: Mycobacterium tuberculosis; format: functional, H37Rv 331/88; design: reference not given here
Mycobacterium kansasii [7] = assay: Potency index, ratio of p-aminosalicylic acid MIC to compound MIC for antimycobacterial activity against Mycobacterium kansasii 235/80; format: functional
Mycobacterium kansasii [8] = assay: Antimycobacterial activity against Mycobacterium kansasii 235/80 after 14 days; format: functional; conditions: 235/80, 336 h
Mycobacterium kansasii [9] = assay: Antimycobacterial activity against Mycobacterium kansasii 6509/96 after 21 days; format: functional; conditions: 6509/96, 504 h
[10] = test system: Mycobacterium tuberculosis; format: functional; conditions: H37Rv 331/88, 336 h
[11] = test system: Mycobacterium tuberculosis; format: functional; conditions: H37Rv 331/88, 504 h
Mycobacterium avium [12] = assay: Antimycobacterial activity against Mycobacterium avium 330/88 after 21 days; format: functional; conditions: 330/88, 504 h
[13] = test system: Mycobacterium tuberculosis H37Rv; assay: Inhibition of recombinant Mycobacterium tuberculosis H37Rv ICL1 expressed in Escherichia coli BL21 (DE3) cells at 10 uM using (+)-potassium Ds-threo-isocitrate as substrate by glyoxylate phenyl hydrazone formation assay relative to control
[14] = test system: Mycobacterium tuberculosis; assay: Antimycobacterial activity against Mycobacterium tuberculosis H37Ra ITM-M006710 after 48 hr by resazurin dye based microdilution method; format: functional; conditions: H37Ra ITM-M006710, 48 h
Mycobacterium kansasii [15] = assay: Antimycobacterial activity against Mycobacterium kansasii 235/80 after 7 days; format: functional; conditions: 235/80, 168 h
in vitro = conditions: human, HepG2 cells
Description: Selectivity index, ratio of IC50 for human HepG2 cells to MIC for antimycobacterial activity against Mycobacterium tuberculosis H37Rv

Mycobacterium kansasii [16] = assay: Potency index, ratio of p-aminosalicylic acid MIC to compound MIC for antimycobacterial activity against Mycobacterium kansasii 6509/96; format: functional
HepG2 [17] = assay: Cytostatic activity against human HepG2 cells preincubated for overnight in serum free medium followed by compound wash out and further incubated for 72 hrs in presence of serum by MTT assay; format: ADME, cell-based
Mycobacterium kansasii [18] = assay: Antimycobacterial activity against Mycobacterium kansasii 6509/96 after 7 days; format: functional; conditions: 6509/96, 168 h

| Compound | MIC [1] | MIC (Mycolicibacterium aurum) | IC50 (HepG2 [2]) [µM] | MIC (Mycobacterium kansasii [3]) [µM] | MIC (Mycobacterium kansasii [4]) [µM] | MIC (Mycobacterium avium [5]) [µM] | Ratio [6] | Ratio (Mycobacterium kansasii [7]) | MIC (Mycobacterium kansasii [8]) [µM] | MIC (Mycobacterium kansasii [9]) [µM] | MIC [10] [µM] | MIC [11] [µM] | MIC (Mycobacterium avium [12]) [µM] | inhibition [13] [%] | MIC [14] | MIC (Mycobacterium kansasii [15]) [µM] | selectivity ratio (in vitro) | Ratio (Mycobacterium kansasii [16]) | IC50 (HepG2 [17]) [µM] | MIC (Mycobacterium kansasii [18]) [µM] |
| --- | --- | --- | --- | --- | --- | --- | --- | --- | --- | --- | --- | --- | --- | --- | --- | --- | --- | --- | --- | --- |
| O=C(NCc1ccccc1)Oc1ccc(Cl)cc1C(=O)Nc1ccc(Cl)cc1 | 1.56 µg/mL | 1.56 µg/mL | > 250 | 16 (≈ 6.64 µg/mL) | 8 (≈ 3.32 µg/mL) | 8 (≈ 3.32 µg/mL) | >125 | >250 | 8 (≈ 3.32 µg/mL) | 8 (≈ 3.32 µg/mL) | 16 (≈ 6.64 µg/mL) | 16 (≈ 6.64 µg/mL) | 16 (≈ 6.64 µg/mL) | 11 | 1.56 µg/mL | 8 (≈ 3.32 µg/mL) | > 15.6 | >250 | 6.4 | 4 (≈ 1.66 µg/mL) |
| O=C(NC1CCCCC1)Oc1ccc(Cl)cc1C(=O)Nc1ccc(F)cc1 | 3.91 µg/mL | 1.56 µg/mL | 21.2 | 32 (≈ 12.5 µg/mL) | 16 (≈ 6.25 µg/mL) | 32 (≈ 12.5 µg/mL) | >125 | >250 | 32 (≈ 12.5 µg/mL) | 32 (≈ 12.5 µg/mL) | 4 (≈ 1.56 µg/mL) | 8 (≈ 3.13 µg/mL) | 32 (≈ 12.5 µg/mL) | 18 | 3.12 µg/mL | 16 (≈ 6.25 µg/mL) | 2.7 to 5.3 | >250 | 8.6 | 16 (≈ 6.25 µg/mL) |
| O=C(NCc1ccccc1)Oc1ccc(Cl)cc1C(=O)Nc1ccc(Br)cc1 | 1.98 µg/mL | 1.98 µg/mL | > 50 | 8 (≈ 3.68 µg/mL) | 8 (≈ 3.68 µg/mL) | 8 (≈ 3.68 µg/mL) | >125 | >250 | 8 (≈ 3.68 µg/mL) | 8 (≈ 3.68 µg/mL) | 16 (≈ 7.36 µg/mL) | 16 (≈ 7.36 µg/mL) | 16 (≈ 7.36 µg/mL) | 17 | 3.91 µg/mL | 4 (≈ 1.84 µg/mL) | > 3.1 | >250 | 1.65 | 4 (≈ 1.84 µg/mL) |
| O=C(NCCc1ccccc1)Oc1ccc(Cl)cc1C(=O)Nc1ccc(Br)cc1 | 3.12 µg/mL | 1.56 µg/mL | > 50 | 8 (≈ 3.79 µg/mL) | 8 (≈ 3.79 µg/mL) | 8 (≈ 3.79 µg/mL) | >125 | >250 | 8 (≈ 3.79 µg/mL) | 8 (≈ 3.79 µg/mL) | 8 (≈ 3.79 µg/mL) | 8 (≈ 3.79 µg/mL) | 8 (≈ 3.79 µg/mL) | 17 | 1.65 µM | 4 (≈ 1.9 µg/mL) | > 6.3 | >250 | 2.2 | 4 (≈ 1.9 µg/mL) |
| O=C(NCCc1ccccc1)Oc1ccc(Cl)cc1C(=O)Nc1ccc(F)cc1 | 3.12 µg/mL | 3.12 µg/mL | 41.5 | 16 (≈ 6.61 µg/mL) | 16 (≈ 6.61 µg/mL) | 32 (≈ 13.2 µg/mL) | >125 | >250 | 16 (≈ 6.61 µg/mL) | 16 (≈ 6.61 µg/mL) | 4 (≈ 1.65 µg/mL) | 4 (≈ 1.65 µg/mL) | 32 (≈ 13.2 µg/mL) | 15 | 3.12 µg/mL | 8 (≈ 3.3 µg/mL) | 10.4 | >250 | 7.6 | 8 (≈ 3.3 µg/mL) |
| O=C(NCc1ccccc1)Oc1ccc(Cl)cc1C(=O)Nc1ccc(C(F)(F)F)cc1 | 1.74 µM | ≤ 0.87 µM | > 125 | 16 (≈ 7.18 µg/mL) | 16 (≈ 7.18 µg/mL) | 32 (≈ 14.4 µg/mL) | >125 | >250 | 16 (≈ 7.18 µg/mL) | 16 (≈ 7.18 µg/mL) | 2 (≈ 0.898 µg/mL) | 4 (≈ 1.8 µg/mL) | 32 (≈ 14.4 µg/mL) | 14 | ≤ 0.87 µM | 8 (≈ 3.59 µg/mL) | > 31.3 | >250 | 3 | 8 (≈ 3.59 µg/mL) |
| O=C(NC12CC3CC(CC(C3)C1)C2)Oc1ccc(Cl)cc1C(=O)Nc1ccc(F)cc1 | 1.98 µg/mL | 1.98 µg/mL | > 125 | 16 (≈ 7.09 µg/mL) | 8 (≈ 3.54 µg/mL) | 32 (≈ 14.2 µg/mL) | >125 | >250 | 8 (≈ 3.54 µg/mL) | 16 (≈ 7.09 µg/mL) | 4 (≈ 1.77 µg/mL) | 4 (≈ 1.77 µg/mL) | 32 (≈ 14.2 µg/mL) | 14 | 2.24 µM | 8 (≈ 3.54 µg/mL) | 31.3 | >250 | > 125 | 8 (≈ 3.54 µg/mL) |
| O=C(NC12CC3CC(CC(C3)C1)C2)Oc1ccc(Cl)cc1C(=O)Nc1ccc(Cl)cc1 | 3.91 µg/mL | 3.91 µg/mL | 24 | 16 (≈ 7.35 µg/mL) | 16 (≈ 7.35 µg/mL) | 16 (≈ 7.35 µg/mL) | >125 | >250 | 16 (≈ 7.35 µg/mL) | 16 (≈ 7.35 µg/mL) | 16 (≈ 7.35 µg/mL) | 16 (≈ 7.35 µg/mL) | 16 (≈ 7.35 µg/mL) | 11 | 3.12 µg/mL | 8 (≈ 3.67 µg/mL) | 1.5 | >250 | 8.15 | 8 (≈ 3.67 µg/mL) |
